Experiment [1] has as its system β2AR-T4L. It counts as binding.
The test system of experiment [2] is β2AR-T4L. Particulars: for λmax ± SD for β2AR-T4L: bimane emission, excitation 350 nm, 15 min incubation with saturating ligand; for ligand-induced change of bimane fluorescence / Intensity at λmax Ligand/Intensity at λmax none: β2AR-T4L; for Intensity at λmax Ligand/Intensity at λmax none: 15 min incubation with ligand.
The target in experiment [3] is wild-type β2AR (Homo sapiens, UniProt P07550). Kind of experiment: Saturation binding of [^3H]DHA to membranes from Sf9 cells expressing wild-type β2AR.
In experiment [4] the target is wild-type β2AR (Homo sapiens, UniProt P07550, E27Q/G16R/N187E). Described as above. Particulars: read-out: Kd ± SE.
Experiment [5] addresses β2AR-T4L (Homo sapiens, UniProt P07550, E27Q/G16R/N187E). Kind of experiment: Saturation binding of [^3H]DHA to membranes from Sf9 cells expressing β2AR-T4L. Here is the method: Membrane preparation from baculovirus-infected Sf9 cells was performed as described previously (G. Swaminath, J. Steenhuis, B. Kobilka, T. W. Lee, Mol Pharmacol 61, 65 (2002)). For each binding reaction, membranes containing 0.7 μg total membrane protein were used. Saturation binding of [^3H]-dihydroalprenolol (DHA) was measured by incubating membranes resuspended in 500 μl binding buffer (75 mM Tris, 12.5 mM MgCl2, 1 mM EDTA, pH 7.4, supplemented with 0.4 mg/ml BSA) with 12 different concentrations of [^3H]DHA (Perkin Elmer) between 20 pM and 10 nM. After 1 h incubation with shaking at 230 rpm, membranes were filtered from the binding reactions with a Brandel harvester, washed with binding buffer, and measured for bound [^3H]DHA with a Beckman LS6000 scintillation counter. […] For competition binding, membranes resuspended in 500 μl binding buffer were incubated with 0.5 nM [^3H]DHA plus increasing concentrations of the competing ligand (all compounds were purchased from Sigma). […] Each data point in the curves in FIGS. 4A and 10 represents the mean of three separate experiments, each done in triplicate. Binding data were analyzed by nonlinear regression analysis using Graphpad Prism.

Experiment [6] concerns the target β2AR Val114^3.33 to alanine mutant (Homo sapiens, UniProt P07550, V114A). Particulars: cited from earlier work.

Read-outs that look alike come from different tables or passages of the source.

On to `CC(C)NC[C@H](O)c1ccc(O)c(O)c1` [(−)-isoproteronol, (−)-isoproterenol], for which the “affinity of β2AR-T4L relative to wild-type β2AR” value in experiment [1] (competition binding) was “two to three-fold higher”. In addition, in experiment [2], the “λmax ± SD for β2AR-T4L” value was found to be 455 ± 2 nm; the “ligand-induced change of bimane fluorescence” value is “qualitatively similar decrease in intensity and rightward shift in λmax”; the “Intensity at λmax Ligand/Intensity at λmax none” value was found to be 0.824 ± 0.006.

A word on the Kd: it is the constant that tells how readily two partners part at equilibrium. With `CCCc1ccccc1OCC(O)CNC(C)C` (centres unmarked) [[^3H]DHA, [^3H]-dihydroalprenolol], the Bmax in experiment [3] stood at 30.0 ± 0.5 pmol/mg; in experiment [5] (β2AR-T4L, Sf9 membranes), 21.6 ± 0.5 pmol/mg. For the same compound, the Kd was 0.161 ± 0.012 nM in experiment [4] and 0.18 ± 0.016 nM in experiment [5] (β2AR-T4L, Sf9 membranes, read-out: Kd ± SE). The “affinity of β2AR-T4L relative to wild-type β2AR” value in experiment [5] was “wild-type affinity”.

Take `CC(C)(C)NCC(O)c1ccc(O)c(CO)c1` (centres unmarked) [salbutamol]: in experiment [2], the “λmax ± SD for β2AR-T4L” value worked out at 449 ± 1 nm, the “ligand-induced change of bimane fluorescence” value was “larger responses in β2AR-T4L than were observed in wild-type β2AR” and the “Intensity at λmax Ligand/Intensity at λmax none” value was 0.928 ± 0.009.

In the case of (−)-epinephrine, in experiment [1], the “affinity of β2AR-T4L relative to wild-type β2AR” value was “two to three-fold higher”. For the same compound, the “lowering of β2AR affinity on mutation of Val114^3.33 to alanine” value in experiment [6] was 300 fold.

The record behind these values is US9670266B2, “Method and composition for crystallizing G protein-coupled receptors” (The Board of Trustees of the Leland Stanford Junior …, priority 2007, dated 2017).
